The values that follow come from patent US7605182B2, “Compounds that selectively bind to membranes of apoptotic cells” (Aposense Ltd., priority 2003, dated 2009).

For this assay, the system named is apoptotic Jurkat cells. The experiment in a line: Selective binding of NST-892 to apoptotic Jurkat cells; flow-cytometric (FACS) analysis. In kind it is cell-based, human. The settings on record: 500 μM compound, 20 minutes. The protocol:
Cultured Jurkat cells (human […] T cell leukemia cells) were grown in suspension in RPMI medium (Beit-Haemek, Israel), supplemented with 10% of fetal calf serum (FCS), 4 mM of L-glutamine, 1 mM of sodium pyruvate, 1 mM CaCl2 and antibiotics (100 units/ml penicilin; 100 μg/ml streptomycin and 12.5 units/ml of nystatin) Prior to induction of apoptosis, medium was replaced with HBS buffer (10 mM HEPES; 140 mM NaCl, 1 mM CaCl). Apoptosis was then triggered by treatment with anti-Fas Ab (0.1 μg/ml; 2.5 hrs). Both control cells and apoptotic cells were then incubated for 20 minutes with 500 μM of NST-892 dissolved in 0.1 m NaPpi pH=7.4. Subsequently, cells were co-stained with propidium iodide (PI), a marker of membrane disintegration during late phases of cell death, and the selective binding of the NST-892 compounds to control and apoptotic cells was determined by flow cytometric (FACS) analysis using Becton-Dickinson cell sorter and CellQuest software (excitation was at 356 nm and emission was measured at 530 nm).

SMILES strings stand for the structures.

Turning to `CN(C)c1cccc2c(S(=O)(=O)NC(C(=O)O)c3cccc4c(C(N)C(=O)O)cccc34)cccc12` (centres unmarked) [NST-892, Mono Dansyl Naphthalene Diglycine], the “percent of identified early apoptotic events within the population (cells binding NST-892, excluding PI)” value reads like this: (apoptotic Jurkat cells (anti-Fas Ab 0.1 μg/ml; 2.5 hrs)) 68.9%; (non-treated control Jurkat cells) 3.3%.
